Experimental data reported in patent publication US20090209568A1, “Spiro [Benzopyran] or Spiro [Benzofuran] Derivatives Which Inhibit the Sigma Receptor” (priority 2006, published 2009).

Assays:
[1] = target: T1, σ1-receptor (Cavia porcellus, UniProt Q60492); test: Sigma-1 receptor radioligand binding, [3H](+)pentazocine (Version A / Version B); parameters: species or system guinea pig; conditions: for % Binding σ1 10^−6 M: compound 10^−6 M; for % Binding σ1 10^−6 M / inhibition at 0.1 µM / inhibition at 0.01 µM: guinea pig brain membranes; for Ki: value in parentheses below the % binding, guinea pig brain; for inhibition at 0.1 µM: compound 10^−7 M; for inhibition at 0.01 µM: compound 10^−8 M
T1 construct: guinea pig brains were homogenized in 10 vols; (w/v) of Tris-HCl 50 mM 0.32 M sucrose; from tissue; host or cells: guinea pig brain membranes
T1 sequence (Q60492 whole entry): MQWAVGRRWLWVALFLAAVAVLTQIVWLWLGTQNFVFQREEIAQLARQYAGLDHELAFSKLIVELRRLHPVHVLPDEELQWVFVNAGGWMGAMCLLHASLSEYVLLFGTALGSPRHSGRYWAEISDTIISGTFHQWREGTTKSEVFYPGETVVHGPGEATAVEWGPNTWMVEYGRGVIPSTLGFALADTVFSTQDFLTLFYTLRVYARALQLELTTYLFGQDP
Experimental: Brain membrane preparation and binding assays for the σ1-receptor were performed as described (DeHaven-Hudkins et al., 1992) with some modifications. In brief, guinea pig brains were homogenized in 10 vols. (w/v) of Tris-HCl 50 mM 0.32 M sucrose, pH 7.4, with a Kinematica Polytron PT 3000 at 15000 r.p.m. for 30 s. The homogenate was centrifuged at 1000 g for 10 min at 4° C. and the supernatants collected and centrifuged again at 48000 g for 15 min at 4° C. The pellet was resuspended in 10 volumes of Tris-HCl buffer (50 mM, pH 7.4), incubated at 37° C. for 30 min, and centrifuged at 48000 g for 20 min at 4° C. Following this, the pellet was resuspended in fresh Tris-HCl buffer (50 mM, pH 7.4) and stored on ice until use.
Each assay tube contained 10 μL of [^3H](+)pentazocine (final concentration of 0.5 nM), 900 μL of the tissue suspension to a final assay volume of 1 mL and a final tissue concentration of approximately 30 mg tissue net weight/mL. Non-specific binding was defined by addition of a final concentration of 1 μM haloperidol. All tubes were incubated at 37° C. for 150 min before termination of the reaction by rapid filtration over Schleicher & Schuell GF 3362 glass fibre filters [previously soaked in a solution of 0.5% polyethylenimine for at least 1 h]. Filters were then washed with four times with 4 mL of cold Tris-HCl buffer (50 mM, pH 7.4). Following addition of scintillation cocktail, the samples were allowed to equilibrate overnight. The amount of bound radioactivity was determined by liquid scintillation spectrometry using a Wallac Winspectral 1414 liquid scintillation counter. Protein concentrations were determined by the method of Lowry et al. (1951).
In brief the σ1-receptor preparation was prepared from guinea pig brain. The brains were homogenized in 5 to 6 times of volume sucrose solution (0.32M) and homogenized. The homogenate was centrifuged at 2900 rpm, 4° C., 10 min). the supernatant was centrifuged again (23500×g, 4° C., 20 min). The pellet was resuspended in Tris-buffer, incubated for 30 min at room temperature and centrifuged f (23500×g, 4° C., 20 min). The pellet was resuspended in cold TRIS-buffer and homogenized. Then the protein content was measured (approx. 1.5 mg/mL) and the homogenate frozen at −80° C. for later use.
The radioligand used was [^3H]-(+)-Pentazocin in TRIS-buffer. In a volume of 200 μL 50 μL TRIS-buffer, 50 μL compound solution of varying concentration, 50 μL radioligand-solution (8 nM; resulting in 2 nM in the assay) and finally 50 μL of receptor preparation (approx. 1.5 mg/mL) were given into a well of a microplate equipped with a filter. The plate was closed and stirred for 2.5 h at 37° C. and 500 rpm. Following that the solvents were removed by a harvester through the filter. After rinsing with H2O the filter was measured in a scintillation counter ([^3H]-protocol).

[2] = tested on: σ2-receptor; test: Sigma-2 receptor radioligand binding, [3H]-DTG (Version A / Version B); parameters: species or system mice (Version A, σ1 knockout brain) / rat (Version B, liver); conditions: compound 10^−6 M
Experimental: Binding studies for σ2-receptor were performed as described (Radesca et al., 1991) with some modifications. In brief, brains from sigma receptor type I (σ1) knockout mice were homogenized in a volume of 10 mL/g tissue net weight of ice-cold 10 mM Tris-HCl, pH 7.4, containing 320 mM sucrose (Tris-sucrose buffer) with a Potter-Elvehjem homogenizer (10 strokes at 500 r.p.m.) The homogenates were then centrifuged at 1000 g for 10 min at 4° C., and the supernatants were saved. The pellets were resuspended by vortexing in 2 mL/g ice-cold Tris-sucrose buffer and centrifuged again at 1000 g for 10 min. The combined 1000 g supernatants were centrifuged at 31000 g for 15 min at 4° C. The pellets were resuspended by vortexing in 3 mL/g 10 mM Tris-HCl, pH 7.4, and the suspension was kept at 25° C. for 15 min. Following centrifugation at 31000 g for 15 min, the pellets were resuspended by gentle Potter Elvehjem homogenization to a volume of 1.53 mL/g in 10 mM Tris-HCl pH 7.4.
The assay tubes contained 10 μL of [^3H]-DTG (final concentration of 3 nM), 400 μL of the tissue suspension (5.3 mL/g in 50 mM Tris-HCl, pH 8.0) to a final assay volume of 0.5 mL. Non-specific binding was defined by addition of a final concentration of 1 μM haloperidol. All tubes were incubated at 25° C. for 120 min before termination of the reaction by rapid filtration over Schleicher & Schuell GF 3362 glass fibre filters [previously soaked in a solution of 0.5% polyethylenimine for at least 1 h]. Filters were washed with three times with 5 mL volumes of cold Tris-HCl buffer (10 mM, pH 8.0). Following addition of scintillation cocktail samples were allowed to equilibrate overnight. The amount of bound radioactivity was determined by liquid scintillation spectrometry using a Wallac Winspectral 1414 liquid scintillation counter. Protein concentrations were determined by the method of Lowry et al. (1951).
In brief the σ2-Receptor preparation was prepared from rat liver. The livers were homogenized in 5 to 6 times of volume sucrose solution (0.32M) and homogenized. The homogenate was centrifuged at 2900 rpm, 4° C., 10 min). the supernatant was centrifuged again (31000×g, 4° C., 20 min). The pellet was resuspended in TRIS-buffer, incubated for 30 min at room temperature while stirring and centrifuged f (31000×g, 4° C., 20 min). The pellet was resuspended in cold TRIS-buffer pH 8 and homogenized. Then the protein content was measured (approx. 2 mg/mL) and the homogenate frozen at −80° C. for later use.
The radioligand used was [^3H]-Ditolylguanidin in TRIS-buffer pH 8. The σ1-receptor binding sites were masked through (+)-Pentazocin-solution in TRIS-Puffer pH 8.
In a volume of 200 μL 50 μL compound solution of varying concentration, 50 μL (+Pentazocin-solution (2 μM; resulting in 500 nM in the assay), 50 μL radioligand-solution (12 nM; resulting in 3 nM in the assay) and finally 50 μL of receptor preparation (approx. 2 mg/mL) were given into a well of a microplate equipped with a filter. The plate was closed and stirred for 2 h at room temperature and 500 rpm. Following that the solvents were removed by a harvester through the filter. After rinsing with H2O the filter was measured in a scintillation counter ([^3H]-protocol).

| SMILES | % Binding σ1 10^−6 M [1] | inhibition at 0.1 µM [1] [%] | inhibition at 0.01 µM [1] [%] | % Binding σ2 10^−6 M [2] [%] | further results |
| --- | --- | --- | --- | --- | --- |
| COC1Cc2ccccc2C2(CCCNC2)O1 (centres unmarked) | – | – | – | – | melting point: 54 to 58 °C |
| COC1OC2(CC[N+]3(CCCC3)CC2)c2ccccc21.[Br-] (centres unmarked) | – | – | – | – | melting point: 124 °C |
| COC1Cc2ccccc2C2(CCN(Cc3ccccc3)C2)O1 (mixture of isomers) [Example 18, cis/trans-1′-Benzyl-3-methoxy-3,4-dihydrospiro[[2]benzopyran-1,3′-pyrrolidin]] | 96.2% | – | – | – | Ki [1]: 70 nM |
| COC1Cc2ccccc2C2(CCN(CCc3ccccc3)C2)O1 (mixture of isomers) [Example 20, cis/trans-3-Methoxy-1′-(2-phenylethyl)-3,4-dihydrospiro[[2]benzopyran-1,3′-pyrrolidin]] | – | 89.5 | 32 | – | – |
| COC1Cc2ccccc2C2(CCN(CCCCc3ccccc3)C2)O1 (mixture of isomers) [Example 21, cis/trans-3-Methoxy-1′-(4-phenylbutyl)-3,4-dihydrospiro[[2]benzopyran-1,3′-pyrrolidin]] | – | 67 | 32 | – | – |
| CCCCCCCCN1CCC2(C1)OC(OC)Cc1ccccc12 (mixture of isomers) [Example 23, cis/trans-3-Methoxy-1′-octyl-3,4-dihydrospiro[[2]benzopyran-1,3′-pyrrolidin]] | – | 70.4 | 0.8 | – | – |
| COC1OC2(CCN(CCc3ccccc3)C2)c2ccccc21 (mixture of isomers) [Example 27, cis/trans-3-Methoxy-1′-(2-Phenylethyl)-3H-spiro[[2]benzofuran-1,3′-pyrrolidin]] | – | 92.2 | 40.4 | – | – |
| COC1OC2(CCN(CCCCc3ccccc3)C2)c2ccccc21 (mixture of isomers) [Example 28, cis/trans-3-Methoxy-1′-(4-Phenylbutyl)-3H-spiro[[2]benzofuran-1,3′-pyrrolidin]] | – | 80.4 | 27.4 | – | – |
| CCCCN1CCC2(C1)OC(OC)c1ccccc12 (mixture of isomers) [Example 29, cis/trans-1′-Butyl-3-methoxy-3H-spiro[[2]benzofuran-1,3′-pyrrolidin]] | – | 68.9 | 45.6 | – | – |
| CCCCCCCCN1CCC2(C1)OC(OC)c1ccccc12 (mixture of isomers) [Example 30, cis/trans-3-Methoxy-1′-octyl-3H-spiro[[2]benzofuran-1,3′-pyrrolidin]] | – | 91.5 | 41.8 | – | – |
| CCCCN1CCC[C@]2(C1)O[C@H](OC)Cc1ccccc12 (racemic) [Example 11, trans-1′-Butyl-3-methoxy-3,4-dihydrospiro[[2]benzopyran-1,3′-piperidin]] | 49^ % | – | – | 18.8 | – |
| CO[C@@H]1Cc2ccccc2[C@]2(CCCN(Cc3ccccc3)C2)O1 (relative stereo) [Example 2, trans-1′-Benzyl-3-methoxy-3,4-dihydrospiro[[2]benzopyran-1,3′-piperidin]] | 12.9% | – | – | 27.8 | – |
| CO[C@@H]1Cc2ccccc2[C@@]2(CCCN(CCCc3ccccc3)C2)O1 (relative stereo) [Example 6, cis-3-Methoxy-1′-(3-phenylpropyl)-3,4-dihydrospiro[[2]benzopyran-1,3′-piperidin]] | 38.8% | – | – | 32.2 | – |
| CO[C@@H]1Cc2ccccc2[C@]2(CCCN(CCCc3ccccc3)C2)O1 (relative stereo) [Example 7, trans-3-Methoxy-1′-(3-phenylpropyl)-3,4 dihydrospiro[[2]benzopyran-1,3′-piperidin]] | 14^ % | – | – | 54.3 | – |
| CCCCN1CCC[C@@]2(C1)O[C@H](OC)Cc1ccccc12 (relative stereo) [Example 10, cis-1′-Butyl-3-methoxy-3,4-dihydrospiro[[2]benzopyran-1,3′-piperidin]] | 56^ % | – | – | 7.6 | – |
| CCCCCCCCN1CCC[C@]2(C1)O[C@H](OC)Cc1ccccc12 (relative stereo) [Example 15, trans-3-Methoxy-1′-octyl-3,4-dihydrospiro[[2]benzopyran-1,3′-piperidin]] | 27.6% | – | – | 56.3 | – |
| CO[C@@H]1Cc2ccccc2[C@@]2(CCCN(Cc3ccccc3)C2)O1 [Example 1, cis-1′-Benzyl-3-methoxy-3,4-dihydrospiro[[2]benzopyran-1,3′-piperidin]] | – | 34 | – | – | – |
| CCCCCCCCN1CCC[C@@]2(C1)O[C@H](OC)Cc1ccccc12 [Example 14, cis-3-Methoxy-1′-octyl-3,4-dihydrospiro[[2]bonzopyran-1,3′-piperidin]] | 46.3% | – | – | 45.4 | – |
| CCCCN1CCC2(CC1)OC(OC)Cc1ccccc12 (centres unmarked) [Example 36] | 100.8% | – | – | 39.7 | Ki [1]: 2.3 nM |
| CCCCCCCCN1CCC2(CC1)OC(OC)Cc1ccccc12 (centres unmarked) [Example 37] | 103.9% | – | – | 72.6 | – |
